system: human polymorphonuclear cells (PMNs); test: In vitro PMN elastolysis assay (tritiated elastin); assay type: cell-based; conditions: at 1.2 μM; mean±s.e.m.; n=3 different donors at 3.6×10^5 cells per well
Experimental: In Vitro PMN Elastolysis Assay:
This assay is used to determine the elastolytic potential of human polymorphonuclear cells (PMNs) and assess the proportion of degradation due to neutrophil elastase [cf. Z. W. She et al., Am. J. Respir. Cell. Mol. Biol. 9, 386-392 (1993)].
Tritiated elastin, in suspension, is coated on to a 96 well plate at 10 μg per well. Test and reference [ZD-0892 (J. Med. Chem. 40, 1876-1885, 3173-3181 (1997), WO 95/21855) and α1 protease inhibitor (α1PI)] compounds are added to the wells at the appropriate concentrations. […] Porcine pancreatic elastase (1.3 μM is used as a positive control for the assay, and α1PI (1.2 μM) is used as the positive inhibitor of neutrophil elastase. The cellular control is PMNs without compound at each appropriate cell density. The cells plus compounds are incubated in a humidified incubator at 37° C. for 4 hours. The plates are centrifuged to allow the harvest of cell supernatant only. The supernatant is transferred in 75 μl volumes to corresponding wells of a 96 well Lumaplate™ (solid scintillant containing plates). The plates are dried until no liquid is visible in the wells and read in a beta counter for 3 minutes per well. […]
The compounds of this invention are evaluated for their inhibitory activity in this HNE-dependent model of neutrophil elastolysis.

Compound | inhibition of elastolysis
α1PI: α1 protease inhibitor, reference and positive inhibitor of neutrophil elastase | 83.46±3.97%

same assay, conditions: mean±s.e.m.; n=2 different donors at 3.6×10^5 cells per well

Compound | IC50
COc1ccc(C(=O)N[C@H](C(=O)N2CCC[C@H]2C(=O)N[C@H](C(=O)C(F)(F)F)C(C)C)C(C)C)cc1 [ZD-0892] | 0.0455 ± 0.00775 µM

target: T1, human neutrophil elastase (HNE) (Homo sapiens, UniProt P08246); test: In vitro inhibition of HNE using a fluorogenic peptide substrate (continuous read-out signal, 384 MTP assay format); assay type: biochemical; conditions: substrate MeOSuc-Ala-Ala-Pro-Val-AMC, 37° C.
T1 construct: purchased SERVA Electrophoresis GmbH, Heidelberg, Germany #20927.01
T1 sequence (P08246 30-267): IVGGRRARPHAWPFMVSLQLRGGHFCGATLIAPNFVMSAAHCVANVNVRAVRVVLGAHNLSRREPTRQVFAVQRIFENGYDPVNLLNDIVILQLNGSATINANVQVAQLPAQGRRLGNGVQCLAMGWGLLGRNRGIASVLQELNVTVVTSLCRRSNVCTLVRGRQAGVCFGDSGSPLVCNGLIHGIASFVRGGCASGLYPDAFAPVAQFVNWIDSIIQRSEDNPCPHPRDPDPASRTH
Experimental: I. In vitro Enzyme Assays of Human Neutrophil Elastase (HNE)
assay buffer: 0.1 M HEPES-NaOH buffer pH 7.4, 0.5 M NaCl, 0.1% (w/v) bovine serum albumin;
suitable concentration (see below) of substrate in assay buffer;
suitable concentration of test compounds diluted with assay buffer from a 10 mM stock solution in DMSO.
The test solution is prepared by mixing 10 μl of test compound dilution, 20 μl of HNE enzyme dilution (final concentration 8-0.4 μU/ml, routinely 2.1 μU/ml) and 20 μl of substrate dilution (final concentration 1 mM-1 μM, routinely 20 μM), respectively. The solution is incubated for 0-2 hrs at 37° C. (routinely one hour). The florescence of the liberated AMC due to the enzymatic reaction is measured at 37° C. (TECAN spectra fluor plus plate reader). […] IC50 values are determined by RFU-versus-[I] plots. Km and Km(app.) values are determined by Lineweaver-Burk inverted to Ki values by Dixon plots.

Compound | IC50
N#CC1=C(N)N(c2cccc(C(F)(F)F)c2)C(=O)NC1c1ccc(C#N)cc1 (stereo not shown) [Example 9, 6-Amino-4-(4-cyanophenyl)-2-oxo-1-[3-(trifluoromethyl)phenyl]-1,2,3,4-tetrahydro-5-pyrimidinecarbonitrile] | 0.04 µM
CCOC(=O)C1=C(C)N(c2cccc(C(F)(F)F)c2)C(=O)N(C)C1c1ccc(C#N)cc1 (stereo not shown) [Example 14, Ethyl 4-(4-cyanophenyl)-3,6-dimethyl-2-oxo-1-[3-(trifluoromethyl)phenyl]-1,2,3,4-tetrahydro-5-pyrimidinecarboxylate] | 0.005 µM
CCOC(=O)C1=C(C)N(c2cccc(C(F)(F)F)c2)C(=O)N(C(C)=O)C1c1ccc(C#N)cc1 (stereo not shown) [Example 15, Ethyl 3-acetyl-4-(4-cyanophenyl)-6-methyl-2-oxo-1-[3-(trifluoromethyl)phenyl]-1,2,3,4-tetrahydro-5-pyrimidinecarboxylate] | 0.008 µM
CCOC(=O)C1=C(C)N(c2cccc(C(F)(F)F)c2)C(=O)N(C(=O)OCC)C1c1ccc(C#N)cc1 (stereo not shown) [Example 16, Diethyl 6-(4-cyanophenyl)-4-methyl-2-oxo-3-[3-(trifluoromethyl)phenyl]-3,6-di-hydro-1,5(2H)-pyrimidinedicarboxylate] | 0.01 µM
CCOC(=O)C1=C(CN(CC)CC)N(c2cccc(C(F)(F)F)c2)C(=O)NC1c1ccc(C#N)cc1 (stereo not shown) [Example 20, Ethyl 4-(4-cyanophenyl)-6-[(diethylamino)methyl]-2-oxo-1-[3-(trifluoromethyl)-phenyl]-1,2,3,4-tetrahydro-5-pyrimidinecarboxylate] | 0.7 µM
CCOC(=O)C1=C(C)N(c2cccc(C(F)(F)F)c2)C(=O)NC1c1ccc(C#N)nc1 (stereo not shown) [Example 24, Ethyl 4-(6-cyano-3-pyridinyl)-6-methyl-2-oxo-1-[3-(trifluoromethyl)phenyl]-1,2,3,4-tetrahydro-5-pyrimidinecarboxylate] | 0.013 µM
CC1=C(C(=O)OCCc2ccncc2)C(c2ccc(C#N)cc2)NC(=O)N1c1cccc(C(F)(F)F)c1 (stereo not shown) [Example 28, 2-(4-Pyridinyl)ethyl 4-(4-cyanophenyl)-6-methyl-2-oxo-1-[3-(trifluoromethyl)phenyl]-1,2,3,4-tetrahydro-5-pyrimidinecarboxylate] | 0.05 µM
CC1=C(C(=O)N(C)C)C(c2ccc(C#N)cc2)NC(=O)N1c1cccc(C(F)(F)F)c1 (stereo not shown) [Example 58] | 1.1 µM
CCOC(=O)C1=C(C)N(c2cccc(C(F)(F)F)c2)C(=O)N(CC(=O)N2CCN(C)CC2)C1c1ccc(C#N)cc1 (stereo not shown) [Example 60] | 0.005 µM
CCOC(=O)C1=C(C)N(c2cccc(C(F)(F)F)c2)C(=O)NC1c1cccc([N+](=O)[O-])c1 (stereo not shown) [Example 103, Ethyl 6-methyl-4-(3-nitrophenyl)-2-oxo-1-[3-(trifluoromethyl)phenyl]-1,2,3,4-tetra-hydro-5-pyrimidinecarboxylate] | 0.06 µM
CCOC(=O)C1=C(C)N(c2cccc(C(F)(F)F)c2)C(=O)NC1c1ccc([N+](=O)[O-])cc1 (stereo not shown) [Example 110, Ethyl 6-methyl-4-(4-nitrophenyl)-2-oxo-1-[3-(trifluoromethyl)phenyl]-1,2,3,4-tetra-hydropyrimidine-5-carboxylate] | 0.05 µM
